Legend:
[1] = Inhibition of gamma-secretase-mediated amyloid beta-42 production in diluted 2B7 conditioned media after 5 hrs
[2] = Inhibition of gamma-secretase-mediated amyloid beta-40 production in diluted 2B7 conditioned media at 0.8 uM after 5 hrs
[3] = Inhibition of gamma-secretase-mediated amyloid beta-40 production in diluted 2B7 conditioned media after 5 hrs
[4] = Inhibition of gamma-secretase-mediated amyloid beta-38 production in diluted 2B7 conditioned media after 5 hrs
[5] = Drug level in CD1 mouse brain at 100 mg/kg, po after 2 hrs; type: ADME, organism-based; parameters: dose 100 mg/kg, route oral; conditions: read-out: Drug uptake
[6] = Drug level in CD1 mouse brain at 100 mg/kg, po after 4 hrs; type: ADME, organism-based; parameters: dose 100 mg/kg, route oral; conditions: read-out: Drug uptake
[7] = Drug level in CD1 mouse brain at 100 mg/kg, po after 6 hrs; type: ADME, organism-based; parameters: dose 100 mg/kg, route oral; conditions: read-out: Drug uptake
[8] = Half life in CD1 mouse at 30 mg/kg, po; type: ADME, organism-based; parameters: dose 30 mg/kg, route oral; conditions: in vivo
[9] = Inhibition of gamma-secretase-mediated amyloid beta-40 production in diluted 2B7 conditioned media at 20 uM after 5 hrs
[10] = Inhibition of gamma-secretase assessed as ratio of amyloid beta-40 to amyloid beta-42 production in diluted 2B7 conditioned media after 5 hrs
[11] = Inhibition of gamma-secretase-mediated total amyloid beta production in diluted 2B7 conditioned media at 20 uM after 5 hrs
Gamma-secretase = test: Inhibition of gamma-secretase-mediated notch processing in human SUP-T1 cells after 1 hr by luminescent assay; type: cell-based
[12] = Half life in CD1 mouse at 1 mg/kg, iv; type: ADME, organism-based; parameters: dose 1 mg/kg, route intravenous; conditions: in vivo
[13] = Volume of distribution in CD1 mouse at 1 mg/kg, iv; type: ADME, organism-based; parameters: dose 1 mg/kg, route intravenous; conditions: in vivo
[14] = Clearance in CD1 mouse at 1 mg/kg, iv; type: ADME, organism-based; parameters: dose 1 mg/kg, route intravenous; conditions: in vivo
[15] = Oral bioavailability in CD1 mouse at 30 mg/kg; type: ADME, organism-based; conditions: in vivo
[16] = Ratio of drug level in brain to plasma in CD1 mouse at 30 mg/kg, po; type: ADME, organism-based; parameters: dose 30 mg/kg, route oral; conditions: read-out: BPR
[17] = AUC in CD1 mouse at 30 mg/kg, po; type: ADME, organism-based; parameters: dose 30 mg/kg, route oral; conditions: plasma
[18] = Metabolic stability in CD1 mouse liver microsomes assessed as compound remaining at 1 uM after 60 mins in absence of NADPH; type: ADME, Microsome; conditions: read-out: Stability
[19] = Metabolic stability in CD1 mouse liver microsomes assessed as compound remaining at 1 uM after 60 mins in presence of NADPH; type: ADME, Microsome; conditions: read-out: Stability
[20] = biological target: Gamma-secretase (Homo sapiens) (UniProt Q96BI3+Q9NZ42+Q8WW43+P49768+Q92542+P49810); test: Selectivity ratio of IC50 for gamma-secretase-mediated notch processing in human SUP-T1 cells to IC50 for gamma-secretase-mediated amyloid beta-42 production; type: cell-based
[21] = Dissociation constant, pKa of the compound; type: physicochemical
[22] = Plasma concentration in CD1 mouse at 100 mg/kg, po after 2 hrs; type: ADME, organism-based; parameters: dose 100 mg/kg, route oral
[23] = Plasma concentration in CD1 mouse at 100 mg/kg, po after 4 hrs; type: ADME, organism-based; parameters: dose 100 mg/kg, route oral
[24] = Plasma concentration in CD1 mouse at 100 mg/kg, po after 6 hrs; type: ADME, organism-based; parameters: dose 100 mg/kg, route oral
[25] = Inhibition of gamma-secretase-mediated total amyloid beta production in diluted 2B7 conditioned media after 5 hrs
[26] = Drug level in CD1 mouse brain at 30 mg/kg, po after 4 hrs; type: ADME, organism-based; parameters: dose 30 mg/kg, route oral; conditions: read-out: Drug uptake
[27] = Drug level in CD1 mouse brain at 30 mg/kg, po after 6 hrs; type: ADME, organism-based; parameters: dose 30 mg/kg, route oral; conditions: read-out: Drug uptake
[28] = Drug level in CD1 mouse brain at 30 mg/kg, po after 8 hrs; type: ADME, organism-based; parameters: dose 30 mg/kg, route oral; conditions: read-out: Drug uptake
[29] = Drug level in CD1 mouse brain at 30 mg/kg, po after 24 hrs; type: ADME, organism-based; parameters: dose 30 mg/kg, route oral; conditions: read-out: Drug uptake
[30] = Plasma concentration in CD1 mouse at 30 mg/kg, po after 4 hrs; type: ADME, organism-based; parameters: dose 30 mg/kg, route oral
[31] = Plasma concentration in CD1 mouse at 30 mg/kg, po after 6 hrs; type: ADME, organism-based; parameters: dose 30 mg/kg, route oral
[32] = Plasma concentration in CD1 mouse at 30 mg/kg, po after 8 hrs; type: ADME, organism-based; parameters: dose 30 mg/kg, route oral
[33] = Plasma concentration in CD1 mouse at 30 mg/kg, po after 24 hrs; type: ADME, organism-based; parameters: dose 30 mg/kg, route oral
[34] = Inhibition of gamma-secretase-mediated amyloid beta-37 production in diluted 2B7 conditioned media after 5 hrs

Q: Which results are given for `CC(=O)O[C@@H]([C@H]1C[C@@H](C)[C@H]2[C@H](O1)[C@H](O)[C@@]1(C)[C@@H]3CC[C@H]4C(C)(C)[C@@H](O[C@H]5CN(CCN6CCCC6)CCO5)CC[C@@]45C[C@@]35CC[C@]21C)C(C)(C)O`?
A: IC50 [1]: 110 nM; inhibition [2]: 34%

Q: Which IC50 [1] does the source give for `CC(=O)O[C@@H]([C@H]1C[C@@H](C)[C@H]2[C@H](O1)[C@H](O)[C@@]1(C)[C@@H]3CC[C@H]4C(C)(C)[C@@H](O[C@@H]5OC[C@@H](O)[C@H](O)[C@H]5O)CC[C@@]45C[C@@]35CC[C@]21C)C(C)(C)O` here?
A: 60 nM

Q: And the IC50 [3]?
A: 1000 nM

Q: What about the IC50 [4] of the same molecule?
A: 84 nM

Q: What does the source list for `CC(=O)O[C@@H]([C@H]1C[C@@H](C)[C@H]2[C@H](O1)[C@H](O)[C@@]1(C)[C@@H]3CC[C@H]4C(C)(C)[C@@H](O[C@H]5CN(C6COC6)CCO5)CC[C@@]45C[C@@]35CC[C@]21C)C(C)(C)O`?
A: concentration at 2 h [5]: 103 ng/g; concentration at 4 h [6]: 185 ng/g; concentration at 6 h [7]: 163 ng/g; IC50 [1]: 170 nM; IC50 [3]: 14100 nM; IC50 [4]: 300 nM; half-life [8]: 2.3 h; inhibition [9]: 41%; Ratio [10]: 52; inhibition [11]: 44%; IC50 (Gamma-secretase): > 20000 nM; half-life [12]: 0.3 h; Vd [13]: 0.6 L/kg; clearance [14]: 55 mL/min/kg; bioavailability [15]: 11%; Kp [16]: 0.23; AUC [17]: 1010 ng·h/mL; remaining at 1 h, 1 µM [18]: 1%; remaining at 1 h, 1 µM [19]: 1%; Ratio IC50 [20]: > 70; pKa [21]: 4.6; concentration at 2 h [22]: 279 ng/mL; concentration at 4 h [23]: 420 ng/mL; concentration at 6 h [24]: 453 ng/mL

Q: Which results are given for `CC(=O)O[C@@H]([C@H]1C[C@@H](C)[C@H]2[C@H](O1)[C@H](O)[C@@]1(C)[C@@H]3CC[C@H]4C(C)(C)[C@@H](O[C@H]5CN(CCN(C)C)CCO5)CC[C@@]45C[C@@]35CC[C@]21C)C(C)(C)O`?
A: IC50 [1]: 90 nM; inhibition [2]: 29%

Q: For `CC(=O)O[C@@H]([C@H]1C[C@@H](C)[C@H]2[C@H](O1)[C@H](O)[C@@]1(C)[C@@H]3CC[C@H]4C(C)(C)[C@@H](O[C@H]5CNCCO5)CC[C@@]45C[C@@]35CC[C@]21C)C(C)(C)O`, which IC50 [1] is on record?
A: 55 nM

Q: And the IC50 [3]?
A: 1400 nM

Q: And the IC50 [4]?
A: 80 nM

Q: What about the half-life [8] of the same molecule?
A: 3 h

Q: And the Ratio [10]?
A: 25

Q: What about the IC50 [25] of the same molecule?
A: 2400 nM

Q: And the IC50 (Gamma-secretase)?
A: > 4000 nM

Q: And the half-life [12]?
A: 6.5 h

Q: And the Vd [13]?
A: 12.1 L/kg

Q: What about the clearance [14] of the same molecule?
A: 51.7 mL/min/kg

Q: And the bioavailability [15]?
A: 37%

Q: And the Kp [16]?
A: 1.7

Q: What about the AUC [17] of the same molecule?
A: 3620 ng·h/mL

Q: And the concentration at 4 h [26]?
A: 1340 ng/g

Q: What about the concentration at 6 h [27] of the same molecule?
A: 1630 ng/g

Q: And the concentration at 8 h [28]?
A: 2260 ng/g

Q: What about the concentration at 24 h [29] of the same molecule?
A: 116 ng/g

Q: And the concentration at 4 h [30]?
A: 1140 ng/mL

Q: What about the concentration at 6 h [31] of the same molecule?
A: 840 ng/mL

Q: And the concentration at 8 h [32]?
A: 857 ng/mL

Q: And the concentration at 24 h [33]?
A: 31 ng/mL

Q: And the remaining at 1 h, 1 µM [18]?
A: 20%

Q: What about the remaining at 1 h, 1 µM [19] of the same molecule?
A: 25%

Q: What about the Ratio IC50 [20] of the same molecule?
A: > 70

Q: What about the pKa [21] of the same molecule?
A: 7.7

Q: With `CC(=O)O[C@@H]([C@H]1C[C@@H](C)C2=C(O1)[C@H](O)[C@@]1(C)[C@@H]3CC[C@H]4C(C)(C)[C@@H](O[C@@H]5OC[C@@H](O)[C@H](O)[C@H]5O)CC[C@@]45C[C@@]35CC[C@]21C)C(C)(C)O` as the molecule, how does the IC50 [1] read?
A: 100 nM

Q: And the IC50 [3]?
A: 2700 nM

Q: What about the IC50 [4] of the same molecule?
A: 61 nM

Q: And the IC50 [34]?
A: 39 nM
